What was measured:
[1] = in vivo and in vitro, topical administration; cited from earlier work
[2] = transport of water-soluble material by association with nonionic vesicles

| Compound | effect of phospholipid liposomes on penetration into the skin [1] | transport by association with nonionic vesicles [2] |
| --- | --- | --- |
| C[C@]12CCC(=O)C=C1CC[C@@H]1[C@@H]2[C@@H](O)C[C@@]2(C)[C@H]1CC[C@]2(O)C(=O)CO [hydrocortisone] | do not improve penetration | – |
| C[C@]12CC[C@@H]3c4ccc(O)cc4CC[C@H]3[C@@H]1CC[C@@H]2O [estradiol] | do not improve penetration | – |
| TGF-α: water-soluble material tested for transport by association with nonionic vesicles | – | transported to a greater extent |
| CC(=O)[C@H]1CC[C@H]2[C@@H]3CCC4=CC(=O)CC[C@]4(C)[C@H]3CC[C@]12C [progesterone] | do not improve penetration | – |
| carboxyfluoroscein | – | transported to a greater extent |

— patent publication US5834014A, “Stimulation of hair follicles” (priority 1995, dated 1998)
